Reference: PubChem BioAssay (NCI)
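Compound exposure: 48 hours, 5 concentrations, 96-well plates. GI50 is the concentration that inhibits growth by half. At the TGI there is no net growth.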

Assays:
Assay in all cases: NCI anticancer screen, dose series, 48 h
MALME-3M melanoma = test system: MALME-3M melanoma
DU-145 prostate = test system: DU-145 prostate
MDA-MB-231 breast = test system: MDA-MB-231 breast
SNB-75 CNS = test system: SNB-75 CNS
TK-10 renal = test system: TK-10 renal
UACC-62 melanoma = test system: UACC-62 melanoma
M14 melanoma = test system: M14 melanoma
CAKI-1 renal = test system: CAKI-1 renal
786-0 renal = test system: 786-0 renal

Row | Structure (SMILES) | GI50 (MALME-3M melanoma) [nM] | TGI (MALME-3M melanoma) [µM] | GI50 (DU-145 prostate) [nM] | TGI (DU-145 prostate) [µM] | GI50 (MDA-MB-231 breast) [nM] | TGI (MDA-MB-231 breast) [µM] | GI50 (SNB-75 CNS) [nM] | TGI (SNB-75 CNS) [µM] | GI50 (TK-10 renal) [nM] | TGI (TK-10 renal) [µM] | GI50 (UACC-62 melanoma) [nM] | TGI (UACC-62 melanoma) [µM] | TGI (M14 melanoma) [µM] | TGI (CAKI-1 renal) [µM] | TGI (786-0 renal) [µM] | GI50 (CAKI-1 renal) [nM]
1 | CCCCCCCCCCCCCC[n+]1ccc2c(C)c3c(c(C)c2c1)c1cc(O)ccc1n3CC | 233 | 0.706 | 381 | 1.63 | 602 | 2.1 | 213 | 1.05 | 337 | 1.54 | 468 | 1.87 |  |  |  | 
2 | COC(=O)/C=C/c1ccc2c(c1)CC1(C2)Cc2cc3c(cc2C1=O)CCC3 (stereo not drawn) |  | > 100 |  | > 100 |  | > 100 |  | 71.3 |  | > 100 |  | > 100 | > 100 | > 100 | 68.7 | 
3 | NC1CC2NC3CCCCC3NC2CC1N (stereo not drawn) |  | > 100 |  | > 100 |  | > 100 |  | > 100 |  | > 100 |  | > 100 | > 100 | > 100 | > 100 | 
4 | CC(C)C1=CCC2C(=C1)CCC1C(C)(C(=O)O)CCCC21C (stereo not drawn) (tested in a mixture with another compound) |  | > 100 |  | > 100 |  | > 100 |  | > 100 |  | > 100 |  | > 100 | > 100 | > 100 | > 100 | 
5 | NCCCNC1(c2cc3ccccc3s2)CCCCC1 |  | 3.65 |  | 24.8 |  | 14.2 |  | 24.2 |  | 12 |  | 3.87 | 3.51 | 23 | 5.27 | 
6 | O=S(=O)(O)ON=C1c2ccccc2-c2ccccc21 |  |  |  | > 100 |  | > 100 |  | > 100 |  | > 100 |  | > 100 | > 100 | > 100 | > 100 | 
7 | Cc1cccnc1/N=C/c1c(O)n(C)c(=O)[nH]c1=O |  | 87.7 |  | > 100 |  |  |  | > 100 |  | > 100 |  | > 100 | > 100 | > 100 | > 100 | 
8 | CC(=O)OCC1OC(SC2OC(COC(C)=O)C(OC(C)=O)C(OC(C)=O)C2OC(C)=O)C(OC(C)=O)C(OC(C)=O)C1OC(C)=O (stereo not drawn) |  | > 100 |  | > 100 |  | > 100 |  | > 100 |  | > 100 |  | > 100 |  | > 100 | > 100 | 
9 | O=C1/C(=C/c2ccccc2O)N=C(c2ccccc2)N1c1nc2ccccc2s1 |  |  |  | > 100 |  | 95.1 |  | 98.2 |  | 74.9 |  |  | 85.6 | > 100 | 53.8 | 
10 | Cc1ccc(O)c(-c2cc(-c3cccc(Cl)c3)c(C#N)c(N)n2)c1 |  | 58.1 |  | > 100 |  | 54.4 |  |  |  | 44.6 |  | 35.9 | 46.1 | > 100 | 46 | 
11 | CC1(CCCO)CCCCCCCCCC(C)(CCCO)C1=O (stereo not drawn) |  | > 100 |  | > 100 |  | > 100 |  | > 100 |  |  |  | > 100 | > 100 | > 100 | > 100 | 
12 | CN(C)c1nncc2[nH]cnc12 |  |  |  | > 100 |  | > 100 |  | > 100 |  | > 100 |  | > 100 | > 100 | > 100 | > 100 | 
13 | O=c1[nH]c(=O)n(C2CC(O)C(CO)O2)cc1C1=NC1 (stereo not drawn) |  |  |  | > 100 |  | > 100 |  | > 100 |  | > 100 |  | > 100 | > 100 |  | > 100 | 
14 | COc1cc(/C=C/C(=O)c2c(C)nc3ccccc3c2C)ccc1OCCCOc1cc2c(cc1OC)C(=O)N1CCC[C@H]1C=N2 |  |  | 27.9 | 0.0802 | 30.6 | 0.0985 | 22.6 | 0.114 | 25.7 | 0.0682 | 17 | 0.0321 |  | 0.138 |  | 29.1
15 | CCCCCCCCCCCCOP(=O)(O)OCC(N)C(=O)O (stereo not drawn) |  | > 100 |  | > 100 |  | 58 |  | 51.9 |  | 53 |  |  | > 100 | 95.8 | > 100 | 
16 | COc1cc(COC(=O)N(CC(=O)O)c2ccccc2)c([N+](=O)[O-])cc1OC |  | > 100 |  | > 100 |  |  |  | > 100 |  | > 100 |  | > 100 | > 100 |  | > 100 | 
17 | COC(=O)C1=C(O)C(C(=O)OC)[C@]2(O)[C@H](C(=O)OC)[C@H]1C[C@@H](c1c(Cl)cccc1Cl)[C@H]2C(=O)OC (stereo partly drawn) |  | 5.25 |  | 8.2 |  | 12.9 |  | 8.7 |  |  |  | 5.56 | 2.88 | 11.3 | 3.48 | 
18 | N#CCCN(CCC#N)c1ccc(/C=C2\N=C(c3ccccc3)N(NC(N)=S)C2=O)cc1 |  | > 100 |  | > 100 |  | > 100 |  |  |  | > 100 |  | > 100 | > 100 | > 100 | > 100 | 
19 | O=C(/C=C/c1ccc(/C=C/C(=O)c2ccc(O)cc2)cc1)c1ccc(O)cc1 |  |  |  | > 100 |  | > 100 |  | > 100 |  | > 100 |  | > 100 | > 100 | > 100 | > 100 | 
20 | CC(=C(C(N)=O)C(N)=O)C1C=C(c2cccs2)CC(c2ccc(Cl)cc2)=C1O (stereo not drawn) |  |  |  | > 100 |  | > 100 |  | > 100 |  | > 100 |  | > 100 | > 100 | > 100 | > 100 | 
21 | COc1ccc(OC)c(CC2CCc3nc(N)nc(N)c3C2)c1 (stereo not drawn) |  | 24.2 |  |  |  | > 100 |  | 27.2 |  | > 94 |  | 25.8 | 24.3 | > 100 | 4.46 | 
22 | CCN1CCN(c2nc3ccc([N+](=O)[O-])cc3nc2C(=O)c2ccccc2)CC1 |  | 28.2 |  | 33.2 |  | 28.7 |  |  |  | 34.2 |  | 31.2 | 25.7 | 30.5 | 34.2 | 
23 | O=C1/C(=C/c2cccc(Br)c2)CSC/C1=C\c1cccc(Br)c1 |  | 4.43 |  | 24.3 |  | 48.9 |  |  |  | 16.8 |  | 3.14 | 6.14 | 6.06 | 11.8 | 
